ChEMBL document CHEMBL1150297, “Beta-amino acid substitutions and structure-based CoMFA modeling of hepatitis C virus NS3 protease inhibitors” (Bioorg Med Chem, 2008)

test: Inhibition of HCV NS3 protease by fluorescence plate reader; set-up: species or system Hepacivirus hominis

Row | Compound | Ki [nM]
1 | COc1ccc2c(O[C@@H]3C[C@@H](C(=O)NC4(C(=O)NS(=O)(=O)c5ccccc5)CC4)N(C(=O)C[C@@H](NC(=O)OC(C)(C)C)C(C)C)C3)cc(-c3ccccc3)nc2c1 | 1200
2 | COc1ccc2c(O[C@@H]3C[C@@H](C(=O)NC4(C(=O)O)CC4)N(C(=O)C[C@@H](NC(=O)OC(C)(C)C)C(C)C)C3)cc(-c3ccccc3)nc2c1 | 17000
3 | COc1ccc2c(O[C@@H]3C[C@@H](CC(=O)NC4(C(=O)O)CC4)N(C(=O)[C@@H](NC(=O)OC(C)(C)C)C(C)C)C3)cc(-c3ccccc3)nc2c1 | 61000
4 | COc1ccc2c(O[C@@H]3C[C@@H](C(=O)NC4(C(=O)NS(=O)(=O)c5ccccc5)CC4)N(C(=O)[C@@H](NC(=O)OC(C)(C)C)C(C)C)C3)cc(-c3ccccc3)nc2c1 | 55
5 | COc1ccc2c(O[C@@H]3C[C@@H](C(=O)NC4(C(=O)O)CC4)N(C(=O)[C@@H](NC(=O)OC(C)(C)C)C(C)C)C3)cc(-c3ccccc3)nc2c1 | 320
6 | COc1ccc2c(O[C@@H]3C[C@@H](CC(=O)NC4(C(=O)NS(=O)(=O)c5ccccc5)CC4)N(C(=O)[C@@H](NC(=O)OC(C)(C)C)C(C)C)C3)cc(-c3ccccc3)nc2c1 | 1800

The next lines start with the values.

Row | Ki [nM] | Compound
7 | 1000 | COc1ccc2c(O[C@@H]3C[C@@H](C(=O)NC4(C(=O)C(=O)O)CC4)N(C(=O)[C@@H](NC(=O)OC(C)(C)C)C(C)C)C3)cc(-c3ccccc3)nc2c1
8 | 14000 | COc1ccc2c(O[C@@H]3C[C@@H](C(=O)NC4(CC(=O)NS(=O)(=O)c5ccccc5)CC4)N(C(=O)[C@@H](NC(=O)OC(C)(C)C)C(C)C)C3)cc(-c3ccccc3)nc2c1
9 | 18000 | COc1ccc2c(O[C@@H]3C[C@@H](C(=O)NC4(CC(=O)O)CC4)N(C(=O)[C@@H](NC(=O)OC(C)(C)C)C(C)C)C3)cc(-c3ccccc3)nc2c1
